Assay results as given in patent publication US12187742B2 (XRAD Therapeutics, Inc., priority 2018, dated 2025).
Counter-ions that a name gives are not always drawn.

Assays:
ATM = ATM (Homo sapiens (Human), UniProt Q13315); assay: ATM in Cell Western Assay (pKAP1 in etoposide-treated MCF-7 cells); format: cell-based
In short: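 After paraformaldehyde fixation and Triton X-100 permeabilization, immunostained plates were read by infrared scanning (ODYSSEY CLx). Compound was given as 10 doses, 3-fold dilutions from a 1 μM final top concentration.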

DNA-PK = DNA-PK (Homo sapiens (Human), UniProt P78527); assay: DNA-PK Enzyme-Linked Immunosorbent Assay (phosphorylation of GST-p53 (1-101) peptide); format: biochemical; details: ELISA
In short: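 Inhibition measured by 450 nm absorbance after HRP/TMB detection of phospho-Ser15 on immobilized GST-p53 (1-101). The kinase reaction used 0.1 μg/mL DNA-PK and 20 μM ATP, 1 h at 25 °C. Ten 3-fold compound dilutions, top final concentration 100 nM.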

[1] = MCF-7 cells, etoposide 100 μM, 1 hr, pKAP1 readout
[2] = pKAP1 in etoposide-treated MCF-7 cells

Chain of ATM (Q13315 whole entry): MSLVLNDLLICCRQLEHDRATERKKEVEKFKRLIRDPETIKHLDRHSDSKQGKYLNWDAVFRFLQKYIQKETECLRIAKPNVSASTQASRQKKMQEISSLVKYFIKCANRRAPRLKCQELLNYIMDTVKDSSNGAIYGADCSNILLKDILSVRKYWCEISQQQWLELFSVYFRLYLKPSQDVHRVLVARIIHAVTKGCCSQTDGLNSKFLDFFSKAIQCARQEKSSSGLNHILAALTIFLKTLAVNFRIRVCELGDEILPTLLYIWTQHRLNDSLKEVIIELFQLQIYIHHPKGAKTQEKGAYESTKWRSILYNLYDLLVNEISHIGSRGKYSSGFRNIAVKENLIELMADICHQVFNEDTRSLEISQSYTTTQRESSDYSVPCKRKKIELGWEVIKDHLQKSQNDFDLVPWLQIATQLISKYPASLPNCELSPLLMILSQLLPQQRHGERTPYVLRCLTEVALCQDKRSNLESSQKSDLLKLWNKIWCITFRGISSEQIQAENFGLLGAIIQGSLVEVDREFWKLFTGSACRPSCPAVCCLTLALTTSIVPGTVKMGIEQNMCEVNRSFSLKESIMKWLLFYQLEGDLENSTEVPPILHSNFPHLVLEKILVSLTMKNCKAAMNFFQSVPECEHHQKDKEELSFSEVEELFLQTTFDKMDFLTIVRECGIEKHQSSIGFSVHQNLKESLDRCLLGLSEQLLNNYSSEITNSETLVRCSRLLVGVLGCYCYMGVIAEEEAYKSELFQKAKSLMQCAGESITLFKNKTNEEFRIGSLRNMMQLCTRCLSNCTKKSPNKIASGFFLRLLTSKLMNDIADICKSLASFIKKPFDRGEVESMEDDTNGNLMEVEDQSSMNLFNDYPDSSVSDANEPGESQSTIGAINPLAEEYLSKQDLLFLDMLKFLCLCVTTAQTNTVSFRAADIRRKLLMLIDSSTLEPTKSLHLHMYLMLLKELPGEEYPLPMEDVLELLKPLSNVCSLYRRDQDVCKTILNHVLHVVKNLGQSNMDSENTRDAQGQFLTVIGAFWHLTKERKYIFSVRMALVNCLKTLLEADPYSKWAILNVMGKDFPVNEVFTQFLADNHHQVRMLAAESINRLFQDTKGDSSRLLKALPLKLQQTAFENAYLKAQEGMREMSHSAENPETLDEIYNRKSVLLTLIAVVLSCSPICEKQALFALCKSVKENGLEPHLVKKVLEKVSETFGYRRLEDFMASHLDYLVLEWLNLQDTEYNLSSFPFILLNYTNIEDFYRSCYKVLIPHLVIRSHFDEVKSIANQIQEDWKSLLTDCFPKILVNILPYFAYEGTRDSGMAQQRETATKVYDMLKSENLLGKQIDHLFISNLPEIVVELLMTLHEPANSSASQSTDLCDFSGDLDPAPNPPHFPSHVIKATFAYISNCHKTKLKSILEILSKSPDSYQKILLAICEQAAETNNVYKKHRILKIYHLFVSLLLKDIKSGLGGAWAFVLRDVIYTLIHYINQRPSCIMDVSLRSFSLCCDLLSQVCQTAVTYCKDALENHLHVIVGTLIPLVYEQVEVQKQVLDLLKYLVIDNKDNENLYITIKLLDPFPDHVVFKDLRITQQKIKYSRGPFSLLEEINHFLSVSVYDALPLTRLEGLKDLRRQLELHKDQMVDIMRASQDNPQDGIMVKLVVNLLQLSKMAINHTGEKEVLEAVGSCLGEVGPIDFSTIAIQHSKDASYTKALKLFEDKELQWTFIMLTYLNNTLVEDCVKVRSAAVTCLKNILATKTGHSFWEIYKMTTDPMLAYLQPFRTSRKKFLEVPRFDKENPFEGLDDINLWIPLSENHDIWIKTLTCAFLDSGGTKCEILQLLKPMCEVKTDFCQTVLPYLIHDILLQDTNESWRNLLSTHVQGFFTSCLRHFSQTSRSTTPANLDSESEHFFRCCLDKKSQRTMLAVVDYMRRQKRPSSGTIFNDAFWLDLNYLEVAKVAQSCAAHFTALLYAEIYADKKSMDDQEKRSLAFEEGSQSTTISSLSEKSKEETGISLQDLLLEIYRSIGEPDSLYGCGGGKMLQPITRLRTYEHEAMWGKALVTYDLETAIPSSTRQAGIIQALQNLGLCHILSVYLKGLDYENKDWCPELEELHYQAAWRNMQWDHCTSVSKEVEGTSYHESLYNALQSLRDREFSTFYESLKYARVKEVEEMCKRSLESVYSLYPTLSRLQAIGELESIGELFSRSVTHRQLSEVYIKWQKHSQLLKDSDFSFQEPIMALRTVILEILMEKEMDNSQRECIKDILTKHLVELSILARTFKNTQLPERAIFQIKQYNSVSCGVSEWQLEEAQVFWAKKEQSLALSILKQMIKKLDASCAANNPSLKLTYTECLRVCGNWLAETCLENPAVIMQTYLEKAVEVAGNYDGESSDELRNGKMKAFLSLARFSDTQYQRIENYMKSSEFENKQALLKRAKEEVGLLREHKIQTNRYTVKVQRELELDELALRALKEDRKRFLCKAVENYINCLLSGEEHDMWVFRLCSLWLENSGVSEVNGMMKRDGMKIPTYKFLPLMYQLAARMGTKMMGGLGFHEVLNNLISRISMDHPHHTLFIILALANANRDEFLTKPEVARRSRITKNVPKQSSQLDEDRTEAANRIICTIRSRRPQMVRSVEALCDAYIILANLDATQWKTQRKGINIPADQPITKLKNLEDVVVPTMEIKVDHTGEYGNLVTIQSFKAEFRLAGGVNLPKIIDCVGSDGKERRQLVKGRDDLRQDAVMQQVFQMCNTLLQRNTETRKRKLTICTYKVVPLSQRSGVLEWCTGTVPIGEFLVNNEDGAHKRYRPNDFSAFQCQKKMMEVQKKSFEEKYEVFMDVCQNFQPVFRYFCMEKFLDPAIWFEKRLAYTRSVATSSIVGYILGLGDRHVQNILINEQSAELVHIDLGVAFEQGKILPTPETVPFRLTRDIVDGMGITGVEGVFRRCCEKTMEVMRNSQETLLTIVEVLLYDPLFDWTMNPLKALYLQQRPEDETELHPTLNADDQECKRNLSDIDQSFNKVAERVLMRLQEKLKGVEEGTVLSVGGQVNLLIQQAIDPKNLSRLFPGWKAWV

Row | SMILES | IC50 (ATM; [1]) | IC50 (DNA-PK; ATP 20 μM) | IC50 (ATM; [2]) | IC50 (DNA-PK; 20 μM ATP)
1 | CN1C(=O)C2(CCC2)c2c1cnc1ccc(-c3cnc(N4CCC(N5CCCCC5)CC4)c(NS(=O)(=O)N(C)C)c3)cc21 [Example 208, 8′-(6-{[1,4′-Bipiperidine]-1′-yl}-5-[(dimethylsulfamoyl)amino]pyridin-3-yl)-3′-methyl-2′,3′-dihydrospiro[cyclobutane-1,1′-pyrrolo[2,3-c]quinoline]-2′-one] | 1 to 100 nM | < 0.5 nM |  | 
2 | COc1ncc(-c2ccc3ncc4c(c3c2)C2(CC2)C(=O)N4C)cc1NS(=O)(=O)c1cccc(Cl)c1 [Example 9, 3-Chloro-N-(2-methoxy-5-(3′-methyl-2′-oxo-2′,3′-dihydrospiro [cyclopropane-1,1′-pyrrolo[2,3-c]quinolin]-8′-yl)pyridin-3-yl)benzenesulfonamide] | 1 to 100 nM | < 0.5 nM |  | 
3 | CN(C)CCCOc1ncc(-c2ccc3ncc4c(c3c2)C2(CCC2)C(=O)N4)cc1NS(C)(=O)=O [Example 237, N-(2-(3-(Dimethylamino)propoxy)-5-(2′-oxo-2′,3′-dihydrospiro [cyclobutane-1,1′-pyrrolo[2,3-c]quinolin]-8′-yl)pyridin-3-yl)methanesulfonamide] | 1 to 100 nM | 1 to 100 nM |  | 
4 | CN(C)CCCOc1ncc(-c2ccc3ncc4c(c3c2)C2(CCC2)C(=O)N4C)cc1NS(=O)(=O)c1cncc(Cl)c1 [Example 130, 5-Chloro-N-(2-(3-(dimethylamino)propoxy)-5-(3′-methyl-2′-oxo-2′,3′-dihydrospiro[cyclobulane-1,1′-pyrrolo[2,3-c]quinolin]-8′-yl)pyridin-3-ylpyridine-3-sulfonamide hydrochloride] | 1 to 100 nM | 1 to 100 nM |  | 
5 | CN(C)CCCOc1ncc(-c2ccc3ncc4c(c3c2)C2(CC2)C(=O)N4C)cc1NS(=O)(=O)C1COC1 [Example 76] | 1 to 100 nM | 0.5 to 1 nM |  | 
6 | CN1C(=O)C2(CC2)c2c1cnc1ccc(-c3ccc4ncccc4c3)cc21 [Example 22, 3′-Methyl-8′-(quinolin-6-yl)spiro[cyclopropane-1,1′-pyrrolo[2,3-c]quinolin]-2′(3′-H)-one] | 1 to 100 nM | 1 to 100 nM |  | 
7 | CN1C(=O)C2(CCC2)c2c1cnc1ccc(-c3cnc(OCCCN4CCCCC4)c(NS(=O)(=O)c4ccccc4)c3)cc21 [Example 132, N-(5-(3′-Methyl-2′-oxo-2′,3′-dihydrospiro[cyclobulane-1,1′-pyrrolo[2,3-c]quinolin]-8′-yl)-2-(3-(piperidin-1-yl)propoxy)pyridin-3-yl)benzenesulfonamide hydrochloride] | 1 to 100 nM | 1 to 100 nM |  | 
8 | CN(C)CCCOc1ncc(-c2ccc3ncc4c(c3c2)C2(CCC2)C(=O)N4C)cc1NS(=O)(=O)CC#N [Example 273, 1-Cyano-N-(2-(3-(dimethylamino)propoxy)-5-(3′-methyl-2′-oxo-2′,3′-dihydrospiro[cyclobutane-1,1′-pyrrolo[2,3-c]quinolin]-8′-yl)pyridin-3-yl)methanesulfonamide] | 1 to 100 nM | < 0.5 nM |  | 
9 | CN1CCCC(COc2ncc(-c3ccc4ncc5c(c4c3)C3(CC3)C(=O)N5C)cc2NS(=O)(=O)c2ccccc2)C1 (stereo not shown) [Example 84, N-(5-(3′-Methyl-2′-oxo-2′,3′-dihydrospiro[cyclopropane-1,1′-pyrrolo[2,3-c]quinolin]-8′-yl)-2-((1-methylpiperidin-3-yl)methoxy)pyridin-3-yl)benzenesulfonamide] | 1 to 100 nM | 1 to 100 nM |  | 
10 | CN(C)CCCOc1ncc(-c2cc3c4c(cnc3cc2F)N(C)C(=O)C42CCC2)cc1NS(=O)(=O)N(C)C [Example 290, 8′-{6-[3-(Dimethylamino)propoxy]-5-[(dimethylsulfamoyl)amino]pyridin-3-yl}-7′-fluoro-3′-methyl-2′,3′-dihydrospiro[cyclobutane-1,1′-pyrrolo[2,3-c]quinoline]-2′-one hydrochloride] | 1 to 100 nM | 0.5 to 1 nM |  | 
11 | COC1CCN(CCCOc2ncc(-c3ccc4ncc5c(c4c3)C3(CCC3)C(=O)N5C)cc2NS(C)(=O)=O)C1 (stereo not shown) [Example 283, N-(2-(3-(3-Methoxypyrrolidin-1-yl)propoxy)-5-(3′-methyl-2′-oxo-2′,3′-dihydrospiro[cyclobutane-1,1′-pyrrolo[2,3-c]quinolin]-8′-yl)pyridin-3-yl)methanesulfonamide] | 1 to 100 nM | 0.5 to 1 nM |  | 
12 | CN1CCN(S(=O)(=O)Nc2cc(-c3ccc4ncc5c(c4c3)C3(CCC3)C(=O)N5C)cnc2OCCCN2CCCCC2)CC1 [Example 200] | 0.5 to 1 nM | < 0.5 nM |  | 
13 | Cc1ccc(S(=O)(=O)Nc2cc(-c3ccc4ncc5c(c4c3)C3(CCC3)C(=O)N5C)cnc2N2CCC(N(C)C)CC2)cc1 [Example 178, N-(2-(4-(Dimethylamino)piperidin-1-yl)-5-(3′-methyl-2′-oxo-2′,3′-dihydrospiro[cyclobutane-1,1′-pyrrolo[2,3-c]quinolin]-8′-yl)pyridin-3-yl)-4-methylbenzenesulfonamide 2,2,2-trifluoroacetate] | 1 to 100 nM | < 0.5 nM |  | 
14 | CCN(CC)S(=O)(=O)Nc1cc(-c2ccc3ncc4c(c3c2)C2(CCC2)C(=O)N4C)cnc1OCCCN(C)C [Example 183, 8′-{5-[(Diethylsulfanioyl)amino]-6-[3-(dimethylamino)propoxy]pyridine-3-yl}-3′-methyl-2′,3′-dihydrospiro [cyclobutane-1,1′-pyrrolo[2,3-c]quinoline]-2′-one] | 1 to 100 nM | 1 to 100 nM |  | 

The remaining lines, values ahead:

Row | IC50 (ATM; [1]) | IC50 (DNA-PK; ATP 20 μM) | IC50 (ATM; [2]) | IC50 (DNA-PK; 20 μM ATP) | SMILES
15 |  |  | 1 to 100 nM | 1 to 100 nM | CC(C)NCCOc1ncc(-c2cc3c(cc2F)ncc2c3[C@]3(C[C@H](Oc4ccccc4)C3)C(=O)N2C)cc1NS(=O)(=O)N(C)C [Example 402, cis-8′-{5-[(Dimethylsulfamoyl)amino]-6-{2-[(propan-2-ylamino]ethoxy}pyridine-3-yl}-7′-fluoro-3′-methyl-3-phenoxy-2′,3′-dihydrospiro[cyclobutane-1,1′-pyrrolo[2,3-c]quinoline]-2′-one hydrochloride]
16 |  |  | 1 to 100 nM | 1 to 100 nM | CC(C)NCCOc1ncc(-c2cc3c4c(cnc3cc2F)N(C)C(=O)C42CN(C(C)C)C2)cc1NS(=O)(=O)C(C)C [Example 485, N-(5-(7′-Fluoro-1-isopropyl-3′-methyl-2′-oxo-2′,3′-dihydrospiro[azetidine-3,1′-pyrrolo[2,3-c]quinolin]-8′-yl)-2-(2-(isopropylamino)ethoxy)pyridin-3-yl)propane-2-sulfonamide]
17 |  |  | 1 to 100 nM | 1 to 100 nM | CC(C)NCCOc1ncc(-c2cc3c(cc2F)ncc2c3[C@]3(C[C@@H](c4ccc(F)cc4)C3)C(=O)N2C)cc1NS(C)(=O)=O [Example 423, trans-N-(5-(7′-Fluoro-3-(4-fluorophenyl)-3′-methyl-2′-oxo-2′,3′-dihydrospiro[cyclobutane-1,1′-pyrrolo[2,3-c]quinolin]-8′-yl)-2-(2-(isopropylamino)ethoxy)pyridin-3-yl)methanesulfonamide]
18 |  |  | 1 to 100 nM | 1 to 100 nM | CC(C)NCCOc1ncc(-c2cc3c(cc2F)ncc2c3[C@]3(C[C@H](c4ccccc4)C3)C(=O)N2C)cc1NS(C)(=O)=O [Example 414, cis-N-(5-(7′-Fluoro-3′-methyl-2′-oxo-3-phenyl-2′,3′-dihydrospiro[cyclobutane-1,1′-pyrrolo[2,3-c]quinolin]-8′-yl)-2-(2-(isopropylamino)ethoxy)pyridin-3-yl)methanesulfonamide hydrochloride]
19 |  |  | 1 to 100 nM | < 0.5 nM | CC(C)NCCOc1ncc(-c2cc3c(cc2F)ncc2c3[C@]3(C[C@H](COc4ccccc4)C3)C(=O)N2C)cc1NS(C)(=O)=O [Example 409, cis-N-(5-(7′-Fluoro-3′-methyl-2′-oxo-3-(phenoxymethyl)-2′,3′-dihydrospiro[cyclobutane-1,1′-pyrrolo[2,3-c]quinolin]-8′-yl)-2-(2-(isopropylamino)ethoxy)pyridin-3-yl)methanesulfonamide]
20 |  |  | 1 to 100 nM | 1 to 100 nM | Cc1ncc(S(=O)(=O)Nc2cc(-c3ccc4ncc5c(c4c3)C3(CCC3)C(=O)N5C)cnc2N2CC(N(C)C)C2)s1 [Example 338, N-(2-(3-(Dimethylamino)azetidin-1-yl)-5-(3′-methyl-2′-oxo-2′,3′-dihydrospiro[cyclobutane-1,1′-pyrrolo[2,3-c]quinolin]-8′-yl)pyridin-3-yl)-2-methylthiazole-5-sulfonamide]
21 |  |  | 1 to 100 nM | < 0.5 nM | CC(C)NCCOc1ncc(-c2cc3c4c(cnc3cc2F)N(C)C(=O)C42CN(c3cccc(F)c3)C2)cc1NS(C)(=O)=O [Example 539, N-(5-(7′-Fluoro-1-(3-fluorophenyl)-3′-methyl-2′-oxo-2′,3′-dihydrospiro[azetidine-3,1′-pyrrolo[2,3-c]quinolin]-8′-yl)-2-(2-(isopropylamino)ethoxy)pyridin-3-yl)methanesulfonamide]
22 |  |  | 1 to 100 nM | 0.5 to 1 nM | COC[C@H]1C[C@]2(C1)C(=O)N(C)c1cnc3cc(F)c(-c4cnc(OCCNC(C)C)c(NS(C)(=O)=O)c4)cc3c12 [Example 404, cis-N-(5-(7′-Fluoro-3-(methoxymethyl)-3′-methyl-2′-oxo-2′,3′-dihydrospiro[cyclobutane-1,1′-pyrrolo[2,3-c]quinolin]-8′-yl)-2-(2-(isopropylamino)ethoxy)pyridin-3-yl)methanesulfonamide]
23 | 1 to 100 nM | 0.5 to 1 nM |  |  | CNC1CN(c2ncc(-c3cc4c5c(cnc4cc3F)N(C)C(=O)C53CCC3)cc2NS(C)(=O)=O)C1 [Example 330, N-(5-(7′-Fluor-3′-methyl-2′-oxo-2′,3′-dihydrospiro [cyclobutane-1,1-pyrrolo[2,3-c]quinolin]-8′-yl)-2-(3-(methylamino)azetidin-1-yl)pyridin-3-yl) methanesulfonamide formate]
